In the supplement of paper PMC11061612 one finds Bliss excess data, which are given here for seven compounds.

What all share (assay): Bliss excess, mean over the matrix (fraction); higher = more synergy
Test [1] concerns NB10 (Neuroblastoma). The essentials: (§1)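 Cell lines in DMEM/F12 or RPMI with 10% FBS were plated in 1536-well plates, held 24 hours at 37°C, 5% CO2, then given two-drug dose matrices for 72 hours (DMSO typically 0.2%). Viability was read by CellTiter-Glo 2.0 luminescence and scaled as inhibition from 0 (vehicle wells) to 1 (blank wells). Combination Emax is the second-highest inhibition in the matrix; Bliss excess is observed combination effect minus expected EA + EB − EA·EB, EA and EB being single-agent effects.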

Test [2] relates to Daoy (Other Solid Carcinomas). The procedure, abridged: as §1
The subject of test [3] is 42-MG-BA (Glioblastoma). The essentials:
as §1

Test [4] relates to TE-9 (Esophageal Squamous Cell Carcinoma). The essentials: as §1
The test system of test [5] is Calu-3 (Lung Adenocarcinoma). The essentials:
as §1

For test [6], the system named is HuP-T4 (Pancreatic Carcinoma). The procedure, abridged: as §1
The test system of test [7] is NCI-H2085 (Non-Small Cell Lung Carcinoma). The procedure, abridged:
as §1

The test system of test [8] is HO-1-N-1 (Oral Cavity Carcinoma). The procedure, abridged:
as §1

Test [9] has as its system COLO-205 (Colorectal Carcinoma). The essentials:
as §1

For test [10], the system named is UM-UC-3 (Bladder Carcinoma). The essentials:
as §1

In test [11] the test system is AGS (Gastric Carcinoma). The procedure, abridged:
as §1

For test [12], the system named is TE-15 (Esophageal Squamous Cell Carcinoma). The procedure, abridged: as §1
Test [13] deals with DEL (T-Cell Non-Hodgkin's Lymphoma). The essentials:
as §1

For test [14], the system named is DoTc2-4510 (Cervical Carcinoma). The essentials: as §1
Test [15] concerns KURAMOCHI (Ovarian Carcinoma). The essentials:
as §1

For test [16], the system named is TCCSUP (Bladder Carcinoma). The essentials: as §1
The subject of test [17] is NOS-1 (Osteosarcoma). The essentials:
as §1

The subject of test [18] is HT-1376 (Bladder Carcinoma). The essentials: as §1
In test [19] the test system is CaR-1 (Colorectal Carcinoma). The essentials: as §1
Test [20] relates to MDA-MB-361 (Breast Carcinoma). The procedure, abridged:
as §1

For `CC1(C)CCC(CN2CCN(c3ccc(C(=O)NS(=O)(=O)c4ccc(NCC5CCOCC5)c([N+](=O)[O-])c4)c(Oc4cnc5[nH]ccc5c4)c3)CC2)=C(c2ccc(Cl)cc2)C1` [Venetoclax] + CCN(CCO)CCCOc1ccc2c(Nc3cc(CC(=O)Nc4cccc(F)c4)[nH]n3)ncnc2c1 [AZD2811] (first compound max 1 µM, 7x7, partner max 1 µM), the Bliss excess is -0.0539 in test [1]; -0.0311 in [2]; 0.0019 in test [3]; -0.0184 in [4]; -0.0057 in test [5]; -0.0061 in [6]. Besides, the Bliss excess was -0.0189 in [7]; -0.032 in [8]; -0.0461 in test [9]; -0.0234 in test [10]; 0.0196 in test [11]; -0.0386 in test [12]. The Bliss excess in [13] is -0.0345; in test [14], -0.0189; in [15], -0.0237; in test [16], -0.0259; in test [17], -0.0156; in [18], -0.0605. For the same compound, the Bliss excess in [19] is -0.055; in [20], 0.0884.
Consider `CC1(C)CCC(CN2CCN(c3ccc(C(=O)NS(=O)(=O)c4ccc(NCC5CCOCC5)c([N+](=O)[O-])c4)c(Oc4cnc5[nH]ccc5c4)c3)CC2)=C(c2ccc(Cl)cc2)C1` [Venetoclax] + CN(C)CCCOc1ccc(-c2ccc3ncc4c(c3c2)n(C2CCOCC2)c(=O)n4C)cn1 [AZD0156] (first compound max 1 µM, 7x7, partner max 1 µM), for which the Bliss excess was 0.0418 in [1]; -0.0076 in test [2]; 0.0057 in test [3]; -0.0213 in test [4]; -0.0113 in [5]; -0.0099 in test [6]. In addition, the Bliss excess was -0.0295 in test [7]; 0.0445 in test [8]; -0.0153 in test [9]; 0.0045 in test [10]; -0.0191 in test [11]; -0.0298 in test [12]. The Bliss excess in test [13] was 0.0011; in test [14] it was -0.0148; in test [15], -0.0039; in test [16], -0.036; in [17] it was -0.0358; in [18], -0.0151. Besides, the Bliss excess is -0.0201 in [19] and 0.0156 in [20].
For `CC1(C)CCC(CN2CCN(c3ccc(C(=O)NS(=O)(=O)c4ccc(NCC5CCOCC5)c([N+](=O)[O-])c4)c(Oc4cnc5[nH]ccc5c4)c3)CC2)=C(c2ccc(Cl)cc2)C1` [Venetoclax] + COc1cc(Nc2ncc3c(n2)-c2ccc(Cl)cc2C(c2c(F)cccc2OC)=NC3)ccc1C(=O)O [Alisertib] (first compound max 1 µM, 7x7, partner max 10 µM), the Bliss excess was -0.0052 in test [1]; 0.105 in test [2]; 0.0468 in [3]; 0.0148 in test [4]; -0.0228 in test [5]; 0.0336 in test [6]. For the same compound, the Bliss excess in [7] was 0.0491; in test [8], -0.0846; in test [9] it was -0.0172; in [10], 0.0184; in test [11], 0.0353; in [12] it was 0.0102. Moreover, the Bliss excess in test [13] is 0.0094; in [14], -0.0367; in test [15] it was -0.0992; in [16] it was -0.0341; in [17], -0.0231; in [18], -0.0812. Besides, the figures for the Bliss excess in test [19] and in [20] were 0.008 and 0.147, respectively.
As to `CC1(C)CCC(CN2CCN(c3ccc(C(=O)NS(=O)(=O)c4ccc(NCC5CCOCC5)c([N+](=O)[O-])c4)c(Oc4cnc5[nH]ccc5c4)c3)CC2)=C(c2ccc(Cl)cc2)C1` [Venetoclax] + C[C@@H]1COCCN1C2=NC(=NC(=C2)C3(CC3)[S@](=N)(=O)C)C4=C5C=CNC5=NC=C4 [AZD6738] (first compound max 1 µM, 7x7, partner max 10 µM), the Bliss excess is 0.0159 in test [1]; -0.028 in [2]; -0.0057 in [3]; -0.0019 in [4]; -0.0023 in test [5]; -0.037 in test [6]. Moreover, the Bliss excess is 0.0309 in [7]; -0.0248 in [8]; -0.0328 in test [9]; -0.0296 in [10]; -0.0423 in test [11]; -0.0314 in [12]. In addition, the Bliss excess in test [13] is 0.01; in [14], -0.0174; in test [15], -0.0451; in test [16] it was -0.1; in test [17] it was -0.057; in [18], -0.0365. Also, the Bliss excess is -0.0005 in test [19] and -0.0214 in [20].
In the case of `CC1(C)CCC(CN2CCN(c3ccc(C(=O)NS(=O)(=O)c4ccc(NCC5CCOCC5)c([N+](=O)[O-])c4)c(Oc4cnc5[nH]ccc5c4)c3)CC2)=C(c2ccc(Cl)cc2)C1` [Venetoclax] + C[C@@H](Nc1cc(F)cc(F)c1)c1cc(C(=O)N(C)C)cc2c(=O)cc(N3CCOCC3)oc12 [AZD8186] (first compound max 1 µM, 7x7, partner max 3 µM), the Bliss excess in test [1] was -0.0084; in [2] it was -0.0073; in test [3] it was -0.0591; in test [4], -0.0185; in test [5] it was -0.0189; in test [6], 0.0033. The Bliss excess in [7] is 0.0025; in test [8], -0.009; in test [9], 0.0279; in test [10] it was -0.0164; in test [11] it was -0.0458; in test [12], -0.0307. The Bliss excess in test [13] is 0.0055; in [14], -0.0078; in test [15], -0.0467; in [16] it was -0.0442; in test [17], 0.018; in test [18] it was -0.0446. For the same compound, the results for the Bliss excess in test [19] and in [20] were -0.0366 and -0.0151, respectively.
With `CC1(C)CCC(CN2CCN(c3ccc(C(=O)NS(=O)(=O)c4ccc(NCC5CCOCC5)c([N+](=O)[O-])c4)c(Oc4cnc5[nH]ccc5c4)c3)CC2)=C(c2ccc(Cl)cc2)C1` [Venetoclax] + Cc1cc2ncnn2cc1Nc1ncc2c(n1)n(C1CCOCC1)c(=O)n2C [AZD7648] (first compound max 1 µM, 7x7, partner max 10 µM), the Bliss excess was 0.0053 in test [1]; -0.0129 in test [2]; -0.0013 in test [3]; -0.0175 in [4]; 0.0113 in [5]; -0.0151 in [6]. For the same compound, the Bliss excess in test [7] was -0.0535; in test [8] it was 0.0318; in test [9], -0.0584; in test [10], -0.0325; in [11] it was -0.0505; in test [12], -0.0519. Further, the Bliss excess was 0.0365 in test [13]; -0.0413 in test [14]; -0.0605 in test [15]; -0.0444 in [16]; -0.0504 in test [17]; -0.0226 in test [18]. The Bliss excess in [19] was -0.048; in test [20], 0.0398.
With `CC1(C)CCC(CN2CCN(c3ccc(C(=O)NS(=O)(=O)c4ccc(NCC5CCOCC5)c([N+](=O)[O-])c4)c(Oc4cnc5[nH]ccc5c4)c3)CC2)=C(c2ccc(Cl)cc2)C1` [Venetoclax] + Cn1cnc2c(F)c(Nc3ccc(Br)cc3Cl)c(C(=O)NOCCO)cc21 [Selumetinib] (first compound max 1 µM, 7x7, partner max 3 µM), the Bliss excess in test [1] was 0.0021; in test [2], -0.0185; in test [3], -0.0279; in test [4], -0.027; in test [5], -0.0214; in test [6] it was 0.0009. The Bliss excess in [7] is -0.0271; in test [8], -0.0037; in [9], -0.0722; in test [10], -0.0445; in test [11], -0.0792; in test [12], -0.0268. Moreover, the Bliss excess in test [13] was 0.0117; in test [14], -0.0414; in test [15], -0.0333; in test [16], -0.0444; in [17], -0.0082; in test [18] it was -0.0411. The Bliss excess in test [19] was -0.0511; in test [20] it was -0.0299.
